# Measurements as given in PubChem BioAssay AID1845196 (Molecular Pharmacology Branch, DTP, NCI, 2023).
# Test system: 292921-168-R tumor spheroid viability
# Assay: Anticancer human tumor 292921-168-R patient-derived pancreatic carcinoma cell line growth inhibition
# Details: spheroids with HUVEC and MSC; for IC50: curve of first compound; for viability, T/C: stronger effect = lower value
# Source text: Multicellular complex tumor spheroid response to DNA repair inhibitors in combination with DNA-damaging drugs
# This study explores the anticancer activities of DNA-damaging drugs and inhibitors of DNA damage repair, both as single agents and in combinations. Complex tumor spheroids comprised of malignant cells, endothelial cells and mesenchymal stem cells served as an in vitro model for human solid tumors. This model system incorporates physiologically relevant features and patient-derived or established malignant cell lines with clinically relevant genetic alterations from many tumor types. Twenty-six patient-derived or established malignant cell lines were evaluated representing sarcoma, melanoma, small cell lung cancer (SCLC), non-small cell lung cancer (NSCLC), as well as bladder, ovarian and pancreatic cancers. The concentration ranges selected for each drug and investigational agent were based upon clinically achievable concentrations if the clinical Cmax of the agent was known.
# Compounds. The drugs and compounds olaparib (NSC753686), talazoparib (NSC767125), berzosertib (NSC777718), elimusertib (NSC800525), nedisertib (NSC802822), VX-984 (NSC792969), AZD-1390 (NSC803789), temozolomide (NSC362856), topotecan (NSC609699), trabectedin (NSC813783), staurosporine (NSC755774), and gemcitabine (NSC613327) were obtained from the National Cancer Institute (NCI) Developmental Therapeutics Program Chemical Repository. The FDA-approved anticancer drug set is available from the Developmental Therapeutics Program at https://dtp.cancer.gov/organization/dscb/obtaining/available_plates.htm. […] The stock solutions were prepared in dimethyl sulfoxide (DMSO, Sigma-Aldrich, St. Louis, MO, cat. D2650) at 400-fold the tested concentration and stored at -70 degrees C. Prior to their use, the stock solutions were diluted in fresh medium and the final DMSO concentration in the assay was 0.25% (v/v). All drugs and investigational agents were tested over a range starting from a high concentration at or near the clinical Cmax and decreasing in half-log increments. If the clinical Cmax for an agent had not been determined, the highest concentration tested was 10 microM.
# Cell Lines. The patient-derived cancer cell (PDC) lines: 156681-154-R-J1-PDC, 283228-195-R-J1-PDC, 287954-098-R-J1-PDC, 292921-168-R-J2-PDC, 349418-098-R-PDC, 425362-245-T-J1-PDC, 556581-035-R-J1-PDC, and BL0293-F563-PDC were received from the NCI Patient-Derived Models Repository (PDMR, https://pdmr.cancer.gov). The established cell lines HS-SY-2 (RRID:CVCL_8719), MPNST, and SYO-1 (RRID:CVCL_7146) were obtained from the Sloan Kettering Institute. The alveolar soft parts sarcoma cell line ASPS-1 (RRID:CVCL_S738) was established at the NCI and grown from internal seed stocks. The following established cell lines were purchased from the American Type Culture Collection (ATCC, Manassas, VA): G-401 (ATCC, cat. CRL-1441, RRID:CVCL_0270), SW982 (ATCC, cat. HTB-93, RRID:CVCL_1734), VA-ES-BJ (ATCC, cat. CRL-2138, RRID:CVCL_1785), NCI-H719 (ATCC, cat. CRL-5837, RRID:CVCL_1582), NCI-H196 (ATCC, cat. CRL-5823, RRID:CVCL_1509), NCI-H841 (ATCC, cat. CRL-5845, RRID:CVCL_1595), NCI-H1618 (ATCC, cat. CRL-5879, RRID:CVCL_1480), NCI-H1876 (ATCC, cat. CRL-5902, RRID:CVCL_1503), DMS 114 (ATCC, cat. CRL-2066; RRID:CVCL_1174), NCI-H211 (ATCC, cat. CRL-5824; RRID:CVCL_1529), and SW 1271 (ATCC, cat. CRL-2177, RRID:CVCL_1716). The small cell lung cancer cell line COR-L88 was purchased from Sigma-Aldrich (cat. 92031917-1VL, RRID:CVCL_1141). The non-small cell lung cancer cell lines NCI-H226 (RRID:CVCL_1544) and NCI-H322M (RRID:CVCL_1557) were established at the NCI and grown from internal seed stocks. Pooled donor human umbilical vein endothelial cells (HUVEC, Lonza, cat. CC-2519) and human mesenchymal stem cells (hMSC, Lonza, cat. PT-2501) were purchased from Lonza (Walkersville, MD).
# Cell Culture. All cells were maintained in an incubator at 37 degrees C and 5% CO2 with 95% humidity. […]
# [1] = second compound 0.003 µM, first compound 0.00949 µM
# [2] = second compound 0.003 µM, first compound 0.03 µM
# [3] = second compound 0.003 µM, first compound 0.0949 µM
# [4] = second compound 0.003 µM, first compound 0.3 µM
# [5] = second compound 0.003 µM, first compound 0.949 µM
# [6] = second compound 0.003 µM, first compound 3 µM
# [7] = second compound 0.00949 µM, first compound 0.00949 µM
# [8] = second compound 0.00949 µM, first compound 0.03 µM
# [9] = second compound 0.00949 µM, first compound 0.0949 µM
# [10] = second compound 0.00949 µM, first compound 0.3 µM
# [11] = second compound 0.00949 µM, first compound 0.949 µM
# [12] = second compound 0.00949 µM, first compound 3 µM
# [13] = second compound 0.03 µM, first compound 0.00949 µM
# [14] = second compound 0.03 µM, first compound 0.03 µM
# [15] = second compound 0.03 µM, first compound 0.0949 µM
# [16] = second compound 0.03 µM, first compound 0.3 µM
# [17] = second compound 0.03 µM, first compound 0.949 µM
# [18] = second compound 0.03 µM, first compound 3 µM
# [19] = second compound 0.0949 µM, first compound 0.00949 µM
# [20] = second compound 0.0949 µM, first compound 0.03 µM
# [21] = second compound 0.0949 µM, first compound 0.0949 µM
# [22] = second compound 0.0949 µM, first compound 0.3 µM
# [23] = second compound 0.0949 µM, first compound 0.949 µM
# [24] = second compound 0.0949 µM, first compound 3 µM
# [25] = second compound 0.3 µM, first compound 0.00949 µM
# [26] = second compound 0.3 µM, first compound 0.03 µM
# [27] = second compound 0.3 µM, first compound 0.0949 µM
# [28] = second compound 0.3 µM, first compound 0.3 µM
# [29] = second compound 0.3 µM, first compound 0.949 µM
# [30] = second compound 0.3 µM, first compound 3 µM
# 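Further: spheroids exposed to compounds for 7 days.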
smiles,measurement,setting,value
CNCc1ccc(-c2cc(-c3nc(-c4ccc(S(=O)(=O)C(C)C)cc4)cnc3N)on2)cc1 + CC[C@@]1(O)C(=O)OCc2c1cc1n(c2=O)Cc2cc3c(CN(C)C)c(O)ccc3nc2-1,IC50,second compound 0.003 µM,107 nM
same,IC50,second compound 0.00949 µM,69.2 nM
same,IC50,second compound 0.03 µM,< 9.49 nM
same,IC50,second compound 0.0949 µM,< 9.49 nM
same,IC50,second compound 0.3 µM,< 9.49 nM
same,"viability, T/C",[1],92.2%
same,"viability, T/C",[2],77.3%
same,"viability, T/C",[3],55.9%
same,"viability, T/C",[4],21.1%
same,"viability, T/C",[5],16.6%
same,"viability, T/C",[6],8.99%
same,"viability, T/C",[7],73.1%
same,"viability, T/C",[8],74.7%
same,"viability, T/C",[9],41%
same,"viability, T/C",[10],16.7%
same,"viability, T/C",[11],15.6%
same,"viability, T/C",[12],10.3%
same,"viability, T/C",[13],35.9%
same,"viability, T/C",[14],32.9%
same,"viability, T/C",[15],27%
same,"viability, T/C",[16],14.7%
same,"viability, T/C",[17],13.4%
same,"viability, T/C",[18],9.47%
same,"viability, T/C",[19],12.6%
same,"viability, T/C",[20],15%
same,"viability, T/C",[21],11.2%
same,"viability, T/C",[22],10.1%
same,"viability, T/C",[23],10.3%
same,"viability, T/C",[24],2.13%
same,"viability, T/C",[25],4.63%
same,"viability, T/C",[26],4.83%
same,"viability, T/C",[27],4.59%
same,"viability, T/C",[28],5.23%
same,"viability, T/C",[29],6.72%
same,"viability, T/C",[30],0.97%
Cn1ncnc1[C@H]1c2n[nH]c(=O)c3cc(F)cc(c23)N[C@@H]1c1ccc(F)cc1 + CC[C@@]1(O)C(=O)OCc2c1cc1n(c2=O)Cc2cc3c(CN(C)C)c(O)ccc3nc2-1,IC50,second compound 0.003 µM,181 nM
same,IC50,second compound 0.00949 µM,13.3 nM
same,IC50,second compound 0.03 µM,< 9.49 nM
same,IC50,second compound 0.0949 µM,< 9.49 nM
same,IC50,second compound 0.3 µM,< 9.49 nM
same,"viability, T/C",[1],82.7%
same,"viability, T/C",[2],73.9%
same,"viability, T/C",[3],57.4%
same,"viability, T/C",[4],41%
same,"viability, T/C",[5],31.4%
same,"viability, T/C",[6],12%
same,"viability, T/C",[7],52.6%
same,"viability, T/C",[8],44.7%
same,"viability, T/C",[9],33.8%
same,"viability, T/C",[10],30.1%
same,"viability, T/C",[11],19.5%
same,"viability, T/C",[12],12.9%
same,"viability, T/C",[13],23.6%
same,"viability, T/C",[14],21.1%
same,"viability, T/C",[15],17.4%
same,"viability, T/C",[16],16.9%
same,"viability, T/C",[17],14.5%
same,"viability, T/C",[18],8.5%
same,"viability, T/C",[19],11%
same,"viability, T/C",[20],10.7%
same,"viability, T/C",[21],9.81%
same,"viability, T/C",[22],8.52%
same,"viability, T/C",[23],7.84%
same,"viability, T/C",[24],5.32%
same,"viability, T/C",[25],4.91%
same,"viability, T/C",[26],5.12%
same,"viability, T/C",[27],4.52%
same,"viability, T/C",[28],4.48%
same,"viability, T/C",[29],3.83%
same,"viability, T/C",[30],2.41%
O=C(c1cc(Cc2n[nH]c(=O)c3ccccc23)ccc1F)N1CCN(C(=O)C2CC2)CC1 + CC[C@@]1(O)C(=O)OCc2c1cc1n(c2=O)Cc2cc3c(CN(C)C)c(O)ccc3nc2-1,IC50,second compound 0.003 µM,5580 nM
same,IC50,second compound 0.00949 µM,3250 nM
same,IC50,second compound 0.03 µM,< 94.9 nM
same,IC50,second compound 0.0949 µM,< 94.9 nM
same,IC50,second compound 0.3 µM,< 94.9 nM
same,"viability, T/C",[3],85.8%
same,"viability, T/C",[4],84.9%
same,"viability, T/C",[5],83.2%
same,"viability, T/C",[6],71.3%
same,"viability, T/C","second compound 0.003 µM, first compound 9.49 µM",31.7%
same,"viability, T/C","second compound 0.003 µM, first compound 30 µM",25.6%
same,"viability, T/C",[9],58.6%
same,"viability, T/C",[10],55%
same,"viability, T/C",[11],58.4%
same,"viability, T/C",[12],51.2%
same,"viability, T/C","second compound 0.00949 µM, first compound 9.49 µM",31.1%
same,"viability, T/C","second compound 0.00949 µM, first compound 30 µM",23.9%
same,"viability, T/C",[15],22.6%
same,"viability, T/C",[16],22.7%
same,"viability, T/C",[17],20.4%
same,"viability, T/C",[18],19.9%
same,"viability, T/C","second compound 0.03 µM, first compound 9.49 µM",18.1%
same,"viability, T/C","second compound 0.03 µM, first compound 30 µM",18.6%
same,"viability, T/C",[21],10.1%
same,"viability, T/C",[22],11.3%
same,"viability, T/C",[23],11.2%
same,"viability, T/C",[24],10%
same,"viability, T/C","second compound 0.0949 µM, first compound 9.49 µM",8.85%
same,"viability, T/C","second compound 0.0949 µM, first compound 30 µM",10.6%
same,"viability, T/C",[27],4.24%
same,"viability, T/C",[28],4.06%
same,"viability, T/C",[29],4.61%
same,"viability, T/C",[30],4.65%
same,"viability, T/C","second compound 0.3 µM, first compound 9.49 µM",3.41%
same,"viability, T/C","second compound 0.3 µM, first compound 30 µM",3.89%
